# Assay results as given in ChEMBL document CHEMBL5214948, “Boronic Acid: A Novel Pharmacophore Targeting Src Homology 2 (SH2) Domain of STAT3” (J Med Chem, 2022).
# Calls of active or inactive are those of the source. No cut-off for these calls is given here.
# Experiments:
# [1] = system: MGC-803; experiment: Antitumor activity against human MGC-803 cells xenografted in BALB/c nude mouse assessed as reduction in Ki67 expression at 15 mg/kg, ip measured every day for 20 days by immunohistochemical analysis; assay type: functional, organism-based; settings: time 20.0 day
# [2] = system: AGS; experiment: Induction of apoptosis in human AGS cells at 3 uM incubated for 72 hrs by V-FITC/PI staining based flow cytometry assay; assay type: functional
# [3] = Toxicity in nude BALB/c nude mouse xenografted with human MGC-803 cells assessed as morphological changes in liver at 5 to 15 mg/kg, ip measured every day for 20 days by H and E staining based assay; assay type: organism-based; settings: in vivo, 480 h, time 20 day
# [4] = system: MGC-803; experiment: Antitumor activity against human MGC-803 cells xenografted in BALB/c nude mouse assessed as tumor growth inhibition at 15 mg/kg, ip measured every day for 20 days; assay type: functional; set-up: scale not given: the % may be the effect or the level left; settings: time 20 day
# [5] = target: T1, Signal transducer and activator of transcription 3 (Homo sapiens, UniProt P40763); experiment: Inhibition of STAT3 transcriptional activity transfected in HEK293T cells at 3 to 5 uM incubated for 24 hrs by dual-ludferase reporter gene assay; assay type: cell-based; settings: dose 3-5 µM
# T1 sequence (P40763 whole entry): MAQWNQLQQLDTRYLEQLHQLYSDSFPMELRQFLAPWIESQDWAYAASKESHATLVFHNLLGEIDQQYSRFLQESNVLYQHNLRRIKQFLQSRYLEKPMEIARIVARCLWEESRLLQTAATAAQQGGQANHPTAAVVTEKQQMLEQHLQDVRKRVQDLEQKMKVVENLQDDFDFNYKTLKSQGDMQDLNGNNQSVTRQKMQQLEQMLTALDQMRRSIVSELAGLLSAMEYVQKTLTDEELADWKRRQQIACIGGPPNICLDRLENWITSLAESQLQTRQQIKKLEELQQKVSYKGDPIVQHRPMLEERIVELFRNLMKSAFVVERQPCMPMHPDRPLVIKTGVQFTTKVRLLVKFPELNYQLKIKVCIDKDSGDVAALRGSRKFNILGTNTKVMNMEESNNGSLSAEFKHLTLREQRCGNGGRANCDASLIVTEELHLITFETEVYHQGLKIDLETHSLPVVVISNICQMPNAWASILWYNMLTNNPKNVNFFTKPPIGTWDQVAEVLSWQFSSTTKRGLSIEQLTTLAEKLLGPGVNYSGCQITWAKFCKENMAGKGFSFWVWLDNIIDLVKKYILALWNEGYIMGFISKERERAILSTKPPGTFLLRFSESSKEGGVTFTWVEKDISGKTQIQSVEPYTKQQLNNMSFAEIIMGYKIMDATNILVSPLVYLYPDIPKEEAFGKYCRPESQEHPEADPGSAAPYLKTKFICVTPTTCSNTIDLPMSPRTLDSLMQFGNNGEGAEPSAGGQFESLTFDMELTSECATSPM
# [6] = system: MGC-803; experiment: Antiproliferative activity against human MGC-803 cells assessed as reduction in cell viability at 3 to 5 uM incubated for 72 hrs by Edu incorporation assay; assay type: functional, cell-based; settings: dose 3-5 µM
# [7] = Half life in ICR mouse at 5 mg/kg, iv measured upto 24 hrs by LC-MS/MS analysis; assay type: ADME, organism-based; settings: in vivo
# [8] = system: MGC-803; experiment: Antitumor activity against human MGC-803 cells xenografted in BALB/c nude mouse assessed as reduction in phosphorylated STAT3 at Y705 residue at 5 mg/kg, ip measured every day for 20 days by immunohistochemical analysis; assay type: functional, organism-based; settings: time 20.0 day
# [9] = target: T1, Signal transducer and activator of transcription 3; experiment: Inhibition of STAT3 phosphorylation at Tyr705 residue in human AGS cells incubated for 24 hrs by Western blot analysis; assay type: cell-based; settings: dose 1-3 µM, DDE = dose-dependent effect
# [10] = target: T1, Signal transducer and activator of transcription 3; experiment: Inhibition of IL-6 induced FLAG/HA-tagged STAT3 dimerization in human HEK293T cells pretreated for 24 hrs followed by IL-6 stimulation and measured after 1 hr by immunoprecipitation assay; assay type: cell-based; settings: time 25.0 hrs, DDE = dose-dependent effect
# [11] = system: MGC-803; experiment: Antiproliferative activity against human MGC-803 cells assessed as reduction in cell viability measured after 72 hrs by CCK-8 assay; assay type: functional, cell-based; settings: MGC-803, 72 h
# [12] = system: AGS; experiment: Antiproliferative activity against human AGS cells assessed as reduction in cell viability incubated for 72 hrs by CCK-8 assay; assay type: functional, cell-based
# [13] = Antiproliferative activity against […] H9c2 cells assessed as reduction in cell viability incubated for 72 hrs by CCK-8 assay; assay type: toxicity, cell-based; settings: rat
# [14] = system: AGS; experiment: Inhibition of cell invasion in human AGS cells measured after 24 hrs by crystal violet staining based imaging transwell assay; assay type: functional; settings: dose 1-3 µM, DDE = dose-dependent effect
# [15] = system: AGS; experiment: Inhibition of colony formation in human AGS cells at 0.5 uM incubated for 10 to 15 days by crystal violet staining based assay; assay type: functional, cell-based; settings: time 10-15 day
# [16] = system: MGC-803; experiment: Inhibition of colony formation in human MGC-803 cells at 1 uM incubated for 10 to 15 days by crystal violet staining based assay; assay type: functional, cell-based; settings: time 10-15 day
# [17] = system: MGC-803; experiment: Inhibition of cell migration in human MGC-803 cells assessed as cell migration incubated for 24 hrs by microscopy based by scratch wound healing assay; assay type: functional; settings: dose 1-3 µM, DDE = dose-dependent effect
# [18] = system: MGC-803; experiment: Antitumor activity against human MGC-803 cells xenografted in BALB/c nude mouse assessed as reduction in tumor progression at 5 mg/kg, ip measured every day for 20 days by immunohistochemical analysis; assay type: functional, organism-based; settings: time 20.0 day
# [19] = system: MGC-803; experiment: Antitumor activity against human MGC-803 cells xenografted in BALB/c nude mouse assessed as reduction in Bcl-xL expression at 15 mg/kg, ip measured every day for 20 days by immunohistochemical analysis; assay type: functional, organism-based; settings: time 20.0 day
# [20] = Clearance in ICR mouse at 5 mg/kg, iv measured upto 24 hrs by LC-MS/MS analysis; assay type: ADME, organism-based; settings: in vivo
# [21] = Toxicity in nude BALB/c nude mouse xenografted with human MGC-803 cells assessed as morphological changes in lung at 5 to 15 mg/kg, ip measured every day for 20 days by H and E staining based assay; assay type: organism-based; settings: in vivo, 480 h, time 20 day
# [22] = Cmax in ICR mouse at 5 mg/kg, iv measured upto 24 hrs by LC-MS/MS analysis; assay type: ADME, organism-based; set-up: time < 24 hrs, dose 5 mg/kg, route iv; settings: in vivo
# [23] = system: AGS; experiment: Induction of apoptosis in human AGS cells at 1 uM incubated for 72 hrs by V-FITC/PI staining based flow cytometry assay; assay type: functional
# [24] = target: T1, Signal transducer and activator of transcription 3; experiment: Inhibition of STAT3 transcriptional activity in human AGS cells assessed as downregulation of C-myc protein expression at 1 to 3 uM incubated for 24 hrs by Western blot analysis; assay type: cell-based; settings: dose 1-3 µM
# [25] = Toxicity in nude BALB/c nude mouse xenografted with human MGC-803 cells assessed as morphological changes in kidney at 5 to 15 mg/kg, ip measured every day for 20 days by H and E staining based assay; assay type: organism-based; settings: in vivo, 480 h, time 20 day
# [26] = target: T1, Signal transducer and activator of transcription 3; experiment: Inhibition of STAT3 phosphorylation at Tyr705 residue in human MGC-803 cells incubated for 24 hrs by Western blot analysis; assay type: cell-based; settings: dose 3-5 µM, DDE = dose-dependent effect
# [27] = system: MGC-803; experiment: Antitumor activity against human MGC-803 cells xenografted in BALB/c nude mouse assessed as reduction in tumor cells at 15 mg/kg, ip measured every day for 20 days by immunohistochemical analysis; assay type: functional, organism-based; settings: time 20.0 day
compound,measurement,setting,value
CN(CC(=O)N(Cc1ccc(C2CCCCC2)cc1)c1ccc(B(O)O)cc1)S(=O)(=O)c1c(F)c(F)c(F)c(F)c1F,Activity,[1],Active
same,Activity,[2],26.7%
same,Activity,[3],Non-Toxic
same,Activity,[4],79.13%
same,inhibition,[5],Active
same,Activity,[6],Active
same,half-life,[7],1.25 h
same,Activity,[8],Active
same,inhibition,[9],Dde
same,inhibition,[10],Dde
same,IC50,[11],4.73 µM
same,IC50,[12],1.54 µM
same,IC50 at 72 h,[13],9.05 µM
same,inhibition,[14],Dde
same,inhibition,[15],Active
same,inhibition,[16],Active
same,inhibition,[17],Dde
same,Activity,[18],Active
same,Activity,[19],Active
same,clearance,[20],176 mL/min/kg
same,Activity,[21],Non-Toxic
same,Cmax,[22],1500 ng/mL
same,Activity,[23],13%
same,inhibition,[24],Active
same,Activity,[25],Non-Toxic
same,inhibition,[26],Dde
same,Activity,[27],Active
